Test results as given in PubChem BioAssay AID1845201 (Molecular Pharmacology Branch, DTP, NCI, 2023).

Test system: COR L88 complex tumor spheroid viability
Test: Anticancer human tumor COR L88 cell line growth inhibition;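 further: compound exposure lasted 7 days before viability readout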;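 on viability, T/C: percent of DMSO vehicle-treated spheroids = 100%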
Conditions: for IC50: curve of first compound; for viability, T/C: stronger effect = lower value; active means viability on the fitted dose curve at most 10% of control; inactive means the rest
Summary of the method: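 Complex spheroids of malignant cells with endothelial cells and mesenchymal stem cells; agents alone or combined, from near clinical Cmax (or 10 microM if unknown) down in half-log steps, 0.25% DMSO final.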

[1] = second compound 30 pM, first compound 0.0316 µM
[2] = second compound 30 pM, first compound 0.1 µM
[3] = second compound 30 pM, first compound 0.316 µM
[4] = second compound 30 pM, first compound 1 µM
[5] = second compound 30 pM, first compound 3.16 µM
[6] = second compound 30 pM, first compound 10 µM
[7] = second compound 94.9 pM, first compound 0.0316 µM
[8] = second compound 94.9 pM, first compound 0.1 µM
[9] = second compound 94.9 pM, first compound 0.316 µM
[10] = second compound 94.9 pM, first compound 1 µM
[11] = second compound 94.9 pM, first compound 3.16 µM
[12] = second compound 94.9 pM, first compound 10 µM
[13] = second compound 0.0003 µM, first compound 0.0316 µM
[14] = second compound 0.0003 µM, first compound 0.1 µM
[15] = second compound 0.0003 µM, first compound 0.316 µM
[16] = second compound 0.0003 µM, first compound 1 µM
[17] = second compound 0.0003 µM, first compound 3.16 µM
[18] = second compound 0.0003 µM, first compound 10 µM
[19] = second compound 0.000949 µM, first compound 0.0316 µM
[20] = second compound 0.000949 µM, first compound 0.1 µM
[21] = second compound 0.000949 µM, first compound 0.316 µM
[22] = second compound 0.000949 µM, first compound 1 µM
[23] = second compound 0.000949 µM, first compound 3.16 µM
[24] = second compound 0.000949 µM, first compound 10 µM
[25] = second compound 0.003 µM, first compound 0.0316 µM
[26] = second compound 0.003 µM, first compound 0.1 µM
[27] = second compound 0.003 µM, first compound 0.316 µM
[28] = second compound 0.003 µM, first compound 1 µM
[29] = second compound 0.003 µM, first compound 3.16 µM
[30] = second compound 0.003 µM, first compound 10 µM
[31] = second compound 1 µM, first compound 0.00949 µM
[32] = second compound 1 µM, first compound 0.03 µM
[33] = second compound 1 µM, first compound 0.0949 µM
[34] = second compound 1 µM, first compound 0.3 µM
[35] = second compound 1 µM, first compound 0.949 µM
[36] = second compound 1 µM, first compound 3 µM
[37] = second compound 3.16 µM, first compound 0.00949 µM
[38] = second compound 3.16 µM, first compound 0.03 µM
[39] = second compound 3.16 µM, first compound 0.0949 µM
[40] = second compound 3.16 µM, first compound 0.3 µM
[41] = second compound 3.16 µM, first compound 0.949 µM
[42] = second compound 3.16 µM, first compound 3 µM
[43] = second compound 10 µM, first compound 0.00949 µM
[44] = second compound 10 µM, first compound 0.03 µM
[45] = second compound 10 µM, first compound 0.0949 µM
[46] = second compound 10 µM, first compound 0.3 µM
[47] = second compound 10 µM, first compound 0.949 µM
[48] = second compound 10 µM, first compound 3 µM
[49] = second compound 31.6 µM, first compound 0.00949 µM
[50] = second compound 31.6 µM, first compound 0.03 µM
[51] = second compound 31.6 µM, first compound 0.0949 µM
[52] = second compound 31.6 µM, first compound 0.3 µM
[53] = second compound 31.6 µM, first compound 0.949 µM
[54] = second compound 31.6 µM, first compound 3 µM
[55] = second compound 100 µM, first compound 0.00949 µM
[56] = second compound 100 µM, first compound 0.03 µM
[57] = second compound 100 µM, first compound 0.0949 µM
[58] = second compound 100 µM, first compound 0.3 µM
[59] = second compound 100 µM, first compound 0.949 µM
[60] = second compound 100 µM, first compound 3 µM

CC(C)n1c(=O)n(C)c2cnc3cc(F)c(-c4ccc(OCCCN5CCCCC5)nc4)cc3c21 + COc1cc2c(cc1O)CCNC21CSC2c3c(OC(C)=O)c(C)c4c(c3C(COC1=O)N1C(O)C3Cc5cc(C)c(OC)c(O)c5C(C21)N3C)OCO4
active: viability, T/C [25] 0.74% | viability, T/C [26] 0.77% | viability, T/C [27] 0.6% | viability, T/C [28] 0.82% | viability, T/C [29] 0.66% | viability, T/C [30] 0.99%
1990 nM: IC50 (second compound 0.000949 µM)
4840 nM: IC50 (second compound 0.0003 µM)
9080 nM: IC50 (second compound 94.9 pM)
inactive: viability, T/C [1] 104% | viability, T/C [2] 107% | viability, T/C [3] 95.9% | viability, T/C [4] 104% | viability, T/C [5] 94.1% | viability, T/C [6] 51.2% | viability, T/C [7] 104% | viability, T/C [8] 103% | viability, T/C [9] 98% | viability, T/C [10] 103% | viability, T/C [11] 89.3% | viability, T/C [12] 46.1% | viability, T/C [13] 64.2% | viability, T/C [14] 67.4% | viability, T/C [15] 65.2% | viability, T/C [16] 68.3% | viability, T/C [17] 61.2% | viability, T/C [18] 30.1% | viability, T/C [19] 57.3% | viability, T/C [20] 54.5% | viability, T/C [21] 54.7% | viability, T/C [22] 53.9% | viability, T/C [23] 47.3% | viability, T/C [24] 11.1%
> 10000 nM: IC50 (second compound 30 pM)
< 31.6 nM: IC50 (second compound 0.003 µM)

COc1ccc([C@@H](O)c2cc(-c3ncnc4cc(N5CCOCC5)ccc34)c(F)cc2Cl)nn1 + COc1cc2c(cc1O)CCNC21CSC2c3c(OC(C)=O)c(C)c4c(c3C(COC1=O)N1C(O)C3Cc5cc(C)c(OC)c(O)c5C(C21)N3C)OCO4
7580 nM: IC50 (second compound 30 pM)
active: viability, T/C [22] 1.63% | viability, T/C [23] 0.6% | viability, T/C [24] 1.43% | viability, T/C [25] 0.95% | viability, T/C [26] 1.03% | viability, T/C [27] 1.37% | viability, T/C [28] 2.44% | viability, T/C [29] 2.37% | viability, T/C [30] 2.01%
111 nM: IC50 (second compound 0.000949 µM)
< 31.6 nM: IC50 (second compound 0.003 µM)
1150 nM: IC50 (second compound 0.0003 µM)
> 10000 nM: IC50 (second compound 94.9 pM)
inactive: viability, T/C [1] 100% | viability, T/C [2] 115% | viability, T/C [3] 93.9% | viability, T/C [4] 89.2% | viability, T/C [5] 64.6% | viability, T/C [6] 45.3% | viability, T/C [7] 104% | viability, T/C [8] 108% | viability, T/C [9] 102% | viability, T/C [10] 67.8% | viability, T/C [11] 57.4% | viability, T/C [12] 52.2% | viability, T/C [13] 71.4% | viability, T/C [14] 63.9% | viability, T/C [15] 61.7% | viability, T/C [16] 52.5% | viability, T/C [17] 35.8% | viability, T/C [18] 9.95% | viability, T/C [19] 63.2% | viability, T/C [20] 51.9% | viability, T/C [21] 22.9%

CNCc1ccc(-c2cc(-c3nc(-c4ccc(S(=O)(=O)C(C)C)cc4)cnc3N)on2)cc1 + Cn1nnc2c(C(N)=O)ncn2c1=O
386 nM: IC50 (second compound 100 µM)
463 nM: IC50 (second compound 10 µM)
active: viability, T/C [60] 9.59%
618 nM: IC50 (second compound 1 µM)
inactive: viability, T/C [31] 99.9% | viability, T/C [32] 97.6% | viability, T/C [33] 102% | viability, T/C [34] 72.1% | viability, T/C [35] 36.8% | viability, T/C [36] 12.9% | viability, T/C [37] 92.9% | viability, T/C [38] 107% | viability, T/C [39] 112% | viability, T/C [40] 81.3% | viability, T/C [41] 33.6% | viability, T/C [42] 11% | viability, T/C [43] 87.4% | viability, T/C [44] 99.7% | viability, T/C [45] 95.3% | viability, T/C [46] 63.8% | viability, T/C [47] 25.9% | viability, T/C [48] 10.8% | viability, T/C [49] 80.7% | viability, T/C [50] 90.9% | viability, T/C [51] 101% | viability, T/C [52] 62.5% | viability, T/C [53] 25.1% | viability, T/C [54] 11.2% | viability, T/C [55] 78.3% | viability, T/C [56] 81% | viability, T/C [57] 76.5% | viability, T/C [58] 58% | viability, T/C [59] 21.3%
639 nM: IC50 (second compound 3.16 µM)
448 nM: IC50 (second compound 31.6 µM)

Cn1ncnc1[C@H]1c2n[nH]c(=O)c3cc(F)cc(c23)N[C@@H]1c1ccc(F)cc1 + Cn1nnc2c(C(N)=O)ncn2c1=O
57.7 nM: IC50 (second compound 10 µM)
< 9.49 nM: IC50 (second compound 31.6 µM) | IC50 (second compound 100 µM)
205 nM: IC50 (second compound 1 µM)
124 nM: IC50 (second compound 3.16 µM)
inactive: viability, T/C [31] 79.6% | viability, T/C [32] 74% | viability, T/C [33] 58.4% | viability, T/C [34] 45.8% | viability, T/C [35] 39.8% | viability, T/C [36] 36.3% | viability, T/C [37] 79.4% | viability, T/C [38] 65.2% | viability, T/C [39] 51.1% | viability, T/C [40] 45.3% | viability, T/C [41] 38.5% | viability, T/C [42] 39.1% | viability, T/C [43] 58.6% | viability, T/C [44] 54.8% | viability, T/C [45] 45.9% | viability, T/C [46] 43.1% | viability, T/C [47] 40.8% | viability, T/C [48] 36.3% | viability, T/C [49] 50.2% | viability, T/C [50] 46.1% | viability, T/C [51] 44.2% | viability, T/C [52] 39.4% | viability, T/C [53] 38.9% | viability, T/C [54] 30.1% | viability, T/C [55] 44.4% | viability, T/C [56] 41.8% | viability, T/C [57] 35.1% | viability, T/C [58] 35.1% | viability, T/C [59] 32.6% | viability, T/C [60] 33.3%

O=C(c1cc(Cc2n[nH]c(=O)c3ccccc23)ccc1F)N1CCN(C(=O)C2CC2)CC1 + Cn1nnc2c(C(N)=O)ncn2c1=O
263 nM: IC50 (second compound 100 µM)
3700 nM: IC50 (second compound 31.6 µM)
inactive: viability, T/C [33] 92.8% | viability, T/C [34] 92.8% | viability, T/C [35] 97.3% | viability, T/C [36] 78.4% | viability, T/C (second compound 1 µM, first compound 9.49 µM) 61% | viability, T/C (second compound 1 µM, first compound 30 µM) 45.4% | viability, T/C [39] 102% | viability, T/C [40] 93.6% | viability, T/C [41] 91.8% | viability, T/C [42] 86.5% | viability, T/C (second compound 3.16 µM, first compound 9.49 µM) 54.7% | viability, T/C (second compound 3.16 µM, first compound 30 µM) 47.9% | viability, T/C [45] 72.6% | viability, T/C [46] 83.1% | viability, T/C [47] 75.5% | viability, T/C [48] 64.2% | viability, T/C (second compound 10 µM, first compound 9.49 µM) 50.6% | viability, T/C (second compound 10 µM, first compound 30 µM) 45.1% | viability, T/C [51] 61.8% | viability, T/C [52] 58.1% | viability, T/C [53] 57.5% | viability, T/C [54] 49.5% | viability, T/C (second compound 31.6 µM, first compound 9.49 µM) 45.5% | viability, T/C (second compound 31.6 µM, first compound 30 µM) 41.2% | viability, T/C [57] 53.9% | viability, T/C [58] 48.4% | viability, T/C [59] 46.5% | viability, T/C [60] 43.7% | viability, T/C (second compound 100 µM, first compound 9.49 µM) 39% | viability, T/C (second compound 100 µM, first compound 30 µM) 37%
21300 nM: IC50 (second compound 1 µM)
20900 nM: IC50 (second compound 3.16 µM)
9360 nM: IC50 (second compound 10 µM)
